Values joined by “and” are separate entries in the source; they are usually repeats but may differ in a detail not shown here. Identical values can stand only once. Inconclusive results and toxic doses are left out.

For this experiment, the system named is P388 leukemia ip, CD2F1 mice, survival T/C. As to the kind of experiment: NCI In Vivo Anticancer Drug Screen. Data for tumor model P388 Leukemia (intraperitoneal) in CD2F1 (CDF1) mice. As to conditions: endpoint: median survival time, higher = longer survival. Summed up: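 Mice carrying the transplanted tumor received test compound or vehicle. Survival was recorded in each group, and the value is the treated-group measurement divided by that of the vehicle-treated control group.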

Setting [1] is: dose: 60.0 mg/kg/injection, schedule: Q01DX005 (ip), vehicle: saline with Tween-80.
[2] abbreviates: dose: 120.0 mg/kg/injection, schedule: Q01DX005 (ip), vehicle: saline with Tween-80.
The mark [3] stands for this setting: dose: 240.0 mg/kg/injection, schedule: Q01DX005 (ip), vehicle: saline with Tween-80.
Where [4] appears, read: dose: 60.0 mg/kg/injection, schedule: Q01DX005 (ip), vehicle: Klucel (hydroxypropylcellulose) (HPC).
The mark [5] stands for this setting: dose: 120.0 mg/kg/injection, schedule: Q01DX005 (ip), vehicle: Klucel (hydroxypropylcellulose) (HPC).
Where [6] appears, read: dose: 240.0 mg/kg/injection, schedule: Q01DX005 (ip), vehicle: Klucel (hydroxypropylcellulose) (HPC).
Where [7] appears, read: dose: 50.0 mg/kg/injection, schedule: Q01DX005 (ip), vehicle: Klucel (hydroxypropylcellulose) (HPC).
[8] abbreviates: dose: 100.0 mg/kg/injection, schedule: Q01DX005 (ip), vehicle: Klucel (hydroxypropylcellulose) (HPC).
[9] abbreviates: dose: 200.0 mg/kg/injection, schedule: Q01DX005 (ip), vehicle: Klucel (hydroxypropylcellulose) (HPC).
Setting [10] is: dose: 50.0 mg/kg/injection, schedule: Q01DX005 (ip), vehicle: saline with Tween-80.
Where [11] appears, read: dose: 100.0 mg/kg/injection, schedule: Q01DX005 (ip), vehicle: saline with Tween-80.
[12] abbreviates: dose: 25.0 mg/kg/injection, schedule: Q01DX005 (ip), vehicle: Klucel (hydroxypropylcellulose) (HPC).
Where [13] appears, read: dose: 50.0 mg/kg/injection, schedule: Q01DX009 (ip), vehicle: saline with Tween-80.
Where [14] appears, read: dose: 100.0 mg/kg/injection, schedule: Q01DX009 (ip), vehicle: saline with Tween-80.
The mark [15] stands for this setting: dose: 200.0 mg/kg/injection, schedule: Q01DX009 (ip), vehicle: saline with Tween-80.
[16] abbreviates: dose: 50.0 mg/kg/injection, schedule: Q01DX009 (ip), vehicle: saline.
Setting [17] is: dose: 100.0 mg/kg/injection, schedule: Q01DX009 (ip), vehicle: saline.

As for `NC(Cc1cccs1)C(=O)Nc1nncs1` (stereo not drawn), the T/C was 95 % of control (dose: 100.0 mg/kg/injection, schedule: Q04DX002 (ip), vehicle: suspension in saline); 119 % of control (dose: 200.0 mg/kg/injection, schedule: Q04DX002 (ip), vehicle: suspension in saline); 160 % of control (dose: 400.0 mg/kg/injection, schedule: Q04DX002 (ip), vehicle: saline); 121 % of control (dose: 400.0 mg/kg/injection, schedule: Q04DX002 (ip), vehicle: suspension in saline); 160 % of control (dose: 600.0 mg/kg/injection, schedule: Q04DX002 (ip), vehicle: saline).

Take `CCN(CC)C(=O)c1cccc(COc2ccc(N3C(N)=NC(N)=NC3(C)C)cc2Cl)c1`: the T/C is 90 % of control (dose: 50.0 mg/kg/injection, schedule: Q01DX009 (ip), vehicle: saline sonified); 109 % of control (dose: 50.0 mg/kg/injection, schedule: Q04DX003 (ip), vehicle: saline sonified); 109 % of control (dose: 100.0 mg/kg/injection, schedule: Q01DX009 (ip), vehicle: saline sonified); 100 % of control (dose: 100.0 mg/kg/injection, schedule: Q04DX003 (ip), vehicle: saline sonified).

In the case of `COc1ccc(C(CCOS(=O)(=O)c2ccc(Br)cc2)(c2ccc(OC)cc2)c2ccc(OC)cc2)cc1`, the T/C is 93 % of control under setting [1], 93 % of control under setting [2] and 87 % of control under setting [3].

As for `CC(/C=C/c1ccc(O)cc1)=N\NC(N)=O`, the T/C is, setting by setting: (dose: 30.0 mg/kg/injection, schedule: Q01DX005 (ip), vehicle: Klucel (hydroxypropylcellulose) (HPC)) 103 % of control; under setting [4], 99 % of control; under setting [5], 104 % of control; under setting [6], 101 % of control.

`CCSC(SCC)C(NC(C)=O)C(OC(C)=O)C(OC(C)=O)C(COC(C)=O)OC(C)=O` (stereo not drawn): the T/C runs as follows: (dose: 12.5 mg/kg/injection, schedule: Q01DX009 (ip), vehicle: other) 107 % of control; (dose: 25.0 mg/kg/injection, schedule: Q01DX009 (ip), vehicle: other) 107 % of control; (dose: 50.0 mg/kg/injection, schedule: Q01DX009 (ip), vehicle: other) 95 % of control; (dose: 100.0 mg/kg/injection, schedule: Q01DX009 (ip), vehicle: other) 107 % of control; (dose: 200.0 mg/kg/injection, schedule: Q01DX009 (ip), vehicle: other) 98 % of control.

Consider `CC(C)(C)[Si](C)(C)OC[C@@H]1OC=CC(=O)[C@H]1O`, for which the T/C was 102 % of control under setting [7], 94 % of control under setting [8] and 101 % of control under setting [9].

Take `O=C1c2ccccc2C(=O)c2c1c(Cl)cc1c(=O)c3cc(Cl)cc(Cl)c3[nH]c21`: the T/C is 99 % of control under setting [10]; 95 % of control under setting [11]; 92 % of control (dose: 200.0 mg/kg/injection, schedule: Q01DX005 (ip), vehicle: saline with Tween-80).

With `N#CSCCC(=O)Nc1ccccc1`, the T/C is, setting by setting: (dose: 6.25 mg/kg/injection, schedule: Q01DX005 (ip), vehicle: Klucel (hydroxypropylcellulose) (HPC)) 102 % of control; (dose: 12.5 mg/kg/injection, schedule: Q01DX005 (ip), vehicle: Klucel (hydroxypropylcellulose) (HPC)) 101 % of control; under setting [12], 104 % of control.

Consider `CN1CCC(CO)C1` (stereo not drawn), for which the T/C by setting is: (dose: 12.5 mg/kg/injection, schedule: Q01DX009 (ip), vehicle: water) 91 % of control; (dose: 25.0 mg/kg/injection, schedule: Q01DX009 (ip), vehicle: water) 91 % of control; (dose: 50.0 mg/kg/injection, schedule: Q01DX009 (ip), vehicle: water) 91 % of control.

On to `O=C1CSC(c2c(F)cccc2Cl)N1c1cnccn1` (stereo not drawn), for which the T/C under setting [12] is 99 % of control, the T/C under setting [7] is 102 % of control, the T/C under setting [8] was 101 % of control and the T/C under setting [9] was 106 % of control.

With `C=C(/C=C/CCCC)NC(=O)OCc1ccccc1`, the T/C was 97 % of control under setting [1], 96 % of control under setting [2] and 104 % of control under setting [3].

With `COc1ccc(NC(Cc2ccccc2)=NC(C)(C)C)cc1`, the T/C by setting is: under setting [13], 98 % of control; under setting [14], 89 % of control; under setting [15], 94 % of control.

For `N#C/C(=N\NC(=O)c1ccccc1Cl)c1ccccc1Cl`, the T/C under setting [10] was 97 % of control and the T/C under setting [11] was 106 % of control.

Regarding `O=c1[nH]c2c([N+](=O)[O-])cc(Cl)cc2nc1/C=C(\O)c1ccncc1`, the T/C runs as follows: under setting [4], 102 % of control; under setting [5], 99 % of control.

For `ClC(Cl)=Nc1ccc(Cl)cc1Cl`, the T/C is, setting by setting: under setting [16], 100 % of control; under setting [17], 89 % of control.

For the compound `COc1cc(N)c2c(c1N)C(=O)c1ccccc1C2=O`, the T/C was 98 % of control under setting [7], 101 % of control under setting [8] and 97 % of control under setting [9].

With `COc1ccc2c(c1OC)/C(=C/c1ccccc1)OC2C1c2c(cc3c(c2OC)OCO3)CCN1C` (stereo not drawn), the T/C runs as follows: under setting [7], 104 % of control; under setting [8], 105 % of control; under setting [9], 96 % of control.

For `COc1ccc2c(N)c3cccc[n+]3cc2c1OC`, the T/C by setting is: (dose: 6.25 mg/kg/injection, schedule: Q04DX003 (ip), vehicle: water) 106 % of control and 108 % of control; (dose: 12.5 mg/kg/injection, schedule: Q04DX003 (ip), vehicle: water) 116 % of control and 121 % of control; (dose: 25.0 mg/kg/injection, schedule: Q04DX003 (ip), vehicle: water) 118 % of control and 122 % of control; (dose: 50.0 mg/kg/injection, schedule: Q04DX003 (ip), vehicle: water) 103 % of control.

Take `O=C1N(C2CCCCC2)C(/C=C/c2ccccc2)C1(c1ccccc1)c1ccccc1` (stereo not drawn): the T/C runs as follows: under setting [12], 96 % of control; under setting [7], 94 % of control; under setting [8], 88 % of control; under setting [9], 89 % of control and 91 % of control.

Take `CC(/C=C/c1ccccc1)=N\NC(=O)c1ccc(O)cc1`: the T/C by setting is: under setting [7], 101 % of control; under setting [8], 97 % of control; under setting [9], 93 % of control.

On to `COC(=O)c1cc(C)c(C)cc1NC1OC(CO)C(O)C1O` (stereo not drawn), for which the T/C was 101 % of control under setting [1], 95 % of control under setting [2] and 97 % of control under setting [3].

`Clc1nc2nc(Cl)c(Cl)n2c(Cl)c1Cl`: the T/C (dose: 100.0 mg/kg/injection, schedule: Q04DX002 (ip), vehicle: saline with Tween-80) was 105 % of control and the T/C (dose: 200.0 mg/kg/injection, schedule: Q04DX002 (ip), vehicle: saline with Tween-80) was 117 % of control.

Consider `S=c1s[nH]c2c1CCC2`, for which the T/C is 98 % of control under setting [13]; 105 % of control under setting [16]; 101 % of control under setting [14]; 110 % of control under setting [17]; 105 % of control under setting [15]; 120 % of control (dose: 200.0 mg/kg/injection, schedule: Q01DX009 (ip), vehicle: saline). Moreover, the T/C (dose: 400.0 mg/kg/injection, schedule: Q01DX009 (ip), vehicle: saline with Tween-80) is 95 % of control.

For `CC(C)(C)COc1ccc2c(c1)C1=NC2=NC2=NC(=NC3=NC(=NC4=NC(=N1)c1ccc(OCC(C)(C)C)cc14)c1ccc(OCC(C)(C)C)cc13)c1ccc(OCC(C)(C)C)cc12`, the T/C by setting is: under setting [4], 99 % of control; under setting [5], 88 % of control; under setting [6], 89 % of control.

`CC(C)N(C(C)C)P1(=S)N(C(C)(C)C)N=NN1C(C)(C)C`: the T/C is 91 % of control under setting [7], 101 % of control under setting [8] and 91 % of control under setting [9].

For the compound `O=c1oc2c(ccc3c(O)cccc32)c2c1CCCC2`, the T/C by setting is: under setting [7], 105 % of control; under setting [8], 102 % of control; under setting [9], 93 % of control.

As to `Cc1ccc2[nH]c(C)c(C(=O)c3ccncc3)c2c1`, the T/C by setting is: (dose: 100.0 mg/kg/injection, schedule: Q04DX003 (ip), vehicle: Klucel (hydroxypropylcellulose) (HPC)) 100 % of control; (dose: 200.0 mg/kg/injection, schedule: Q04DX003 (ip), vehicle: Klucel (hydroxypropylcellulose) (HPC)) 100 % of control; (dose: 400.0 mg/kg/injection, schedule: Q04DX003 (ip), vehicle: Klucel (hydroxypropylcellulose) (HPC)) 107 % of control.

For the compound `ONC1=Nc2ccccc2OCCOc2ccccc2N=C1NO`, the T/C runs as follows: under setting [7], 100 % of control; under setting [8], 100 % of control; under setting [9], 96 % of control.

The values above are taken from PubChem BioAssay AID330 (DTP/NCI, 2004).
